What was measured:
[1] = system: HCT-116 human colorectal carcinoma cells; assay: Alamar Blue cell proliferation assay, HCT-116; assay type: cell-based; conditions: HCT-116, Table 1, read-out: AB: HCT-116 IC50
Procedure: A representative cell-proliferation assay protocol using Alamar Blue dye (stored at 4° C., use 20 ul per well) is described hereafter.
a. Split and trypsinize cells.
b. Count cells using hemocytometer.
c. Plate 4,000-5,000 cells per well in 100 μl of medium and seed into a 96-well plate according to the following plate layout. Add cell culture medium only to wells B10 to B12. Wells B1 to B9 have cells but no compound added.
d. Add 100 μl of 2× drug dilution to each well in a concentration shown in the plate layout above. At the same time, add 100 μl of media into the control wells (wells B10 to B12). Total volume is 200 μl/well.
e. Incubate four (4) days at 37° C., 5% CO2 in a humidified incubator.
f. Add 20 μl Alamar Blue reagent to each well.
g. Incubate for four (4) hours at 37° C., 5% CO2 in a humidified incubator.
h. Record fluorescence at an excitation wavelength of 544 nm and emission wavelength of 590 nm using a microplate reader.
In the assays, cells are cultured with a test compound for approximately four days, the dye is then added to the cells and fluorescence of […] dye is detected after approximately four hours. Different types of cells can be utilized in the assays (e.g., HCT-116 human colorectal carcinoma cells, PC-3 human prostatic cancer cells and MiaPaca human pancreatic carcinoma cells).

[2] = system: K-562; assay: Alamar Blue cell proliferation assay, K-562; assay type: cell-based; conditions: Homo sapiens, K562, K-562, Table 1, read-out: AB: K-562 IC50
How it was run: (§1)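 Alamar Blue fluorescence, excitation 544 nm and emission 590 nm, was measured in cells treated with drug for about four days at 37° C, with the dye added four hours before reading. Untreated cells and cell-free medium were included on each plate.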

[3] = system: MV-4-11; assay: Alamar Blue cell proliferation assay, MV-4-11; assay type: cell-based; conditions: Homo sapiens, MV4-11, MV-4-11, Table 1, read-out: AB: MV-4-11 IC50
How it was run: as §1

[4] = system: MV-4-11 (AML) xenograft; conditions: MV-4-11 (AML) xenograft model; 2008 AACR Abstract No. 4974; cited from earlier work
[5] = system: MOLM-13 (AML) xenograft; conditions: MOLM-13 (AML) xenograft model; 2008 AACR Abstract No. 4974; cited from earlier work
[6] = system: leukemic cells from AML patients; conditions: Fedorov et al., PNAS 104(51); cited from earlier work

For O=C1NC(=S)S/C1=C\c1ccc(-c2cccc(C(=O)O)c2)o1, the IC50 [1] was over 10 µM, the IC50 [2] was over 10 µM and the IC50 [3] was over 10 µM.
In the case of CN1CCC(CNc2ccc3ncc(-c4cccc(OC(F)(F)F)c4)n3n2)CC1 [SGI-1776], the tumor regression [4] is listed as “significant tumor regression” and the tumor regression [5] is listed as “significant tumor regression”.
In the case of CN(C)C[C@@H]1CCn2cc(c3ccccc32)C2=C(C(=O)NC2=O)c2cn(c3ccccc23)CCO1 [Ly5333′531], the “effect on cell growth and cell death” value [6] is listed as “suppressed cell growth and induced cell death”.

Reference: patent US20100331315A1, “RHODANINES AND RELATED HETEROCYCLES AS KINASE INHIBITORS” (priority 2009, published 2010)
